Test results from US20240383852A1, “ANTI-VIRAL COMPOUNDS” (INFEX Therapeutics Limited, priority 2021, published 2024).
pIC50: −log10 of the molar value.

How the values were obtained:
[1] = biological target: T1, SARS-CoV-2 PLpro (Severe acute respiratory syndrome coronavirus 2, UniProt P0DTD1); assay: biochemical; settings: 60 nM papain-like protease, 50 μM Z-RLRGG-AMC, pH 7.5, 37° C.; read-out: SARS-CoV-2 PLpro IC50
T1 construct: containing 60 nM papain-like protease

[2] = test system: human Hep G2 cells (ATCC HB-8065); assay: Cytotoxicity in Hep G2 cells (CellTiter-Glo); format: cell-based; settings: Hep G2 cells, 100 μM test article, 24-hour exposure

Structure (SMILES)	pIC50 [1]	% Cell Viability [2] [%]
Cc1ccc(N2CC3(CN(CCC(=O)O)C3)C2)cc1C(=O)N[C@H](C)c1cccc2ccccc12 [Example 168, 3-[2-[4-Methyl-3-[[(1R)-1-(1-naphthyl)ethyl]carbamoyl]phenyl]-2,6-diazaspiro[3.3]heptan-6-yl]propanoic acid]	> 5.30	111.2
Cc1ccc(N2CCN(CCC(=O)O)CC2)cc1C(=O)N[C@H](C)c1cccc(-c2cccc(CO)c2)c1 [Example 170, 3-[4-[3-[[(1R)-1-[3-[3-(Hydroxymethyl)phenyl]phenyl]ethyl]carbamoyl]-4-methyl-phenyl]piperazin-1-yl]propanoic Acid]	> 5.30	107.9
Cc1ccc(N2CCN(CCCC(=O)O)CC2)cc1C(=O)N[C@H](C)c1cccc2ccccc12 [Example 172, 4-[4-[4-Methyl-3-[[(1R)-1-(1-naphthyl)ethyl]carbamoyl]phenyl]piperazin-1-yl]butanoic Acid]	> 5.70	104.6
Cc1ccc(N2CCCN(S(N)(=O)=O)CC2)cc1C(=O)N[C@H](C)c1cccc2ccccc12 [Example 178, 2-methyl-N-[(1R)-1-(1-naphthyl)ethyl]-5-(4-sulfamoyl-1,4-diazepan-1-yl)benzamide]	> 4.70	77.2
COc1ccc([C@@H](C)NC(=O)c2cc(N3CCN(C)CC3)ccc2C)cc1Br [Example 180, N-[(1R)-1-(3-Bromo-4-methoxy-phenyl)ethyl]-2-methyl-5-(4-methylpiperazin-1-yl)benzamide]	> 5.70	93.4
COc1ccc([C@@H](C)NC(=O)c2cc(N3C[C@H]4C[C@@H]3CN4C)ccc2C)cc1Br [Example 181, N-[(1R)-1-(3-Bromo-4-methoxy-phenyl)ethyl]-2-methyl-5-[(1R,4R)-5-methyl-2,5-diazabicyclo[2.2.1]heptan-2-yl]benzamide]	> 5.70	18.9
Cc1ccc(N2CCN(C)CC2)cc1C(=O)N[C@H](C)c1ccc2c(c1)OCCO2 [Example 182, N-[(1R)-1-(2,3-Dihydro-1,4-benzodioxin-6-yl)ethyl]-2-methyl-5-(4-methylpiperazin-1-yl)benzamide]	> 5.30	104.8
COc1cc([C@@H](C)NC(=O)c2cc(N3CCN(C)CC3)ccc2C)ccc1OCc1ccccc1 [Example 184, N-[(1R)-1-(4-benzyloxy-3-methoxy-phenyl)ethyl]-2-methyl-5-(4-methylpiperazin-1-yl)benzamide]	> 5.70	51.3
COc1ccc([C@@H](C)NC(=O)c2cc(N3CCN(C)CC3)ccc2C)cc1F [Example 185, N-[(1R)-1-(3-Fluoro-4-methoxy-phenyl)ethyl]-2-methyl-5-(4-methylpiperazin-1-yl)benzamide]	> 5.00	5.6
COc1cc(Br)cc([C@@H](C)NC(=O)c2cc(N3CCN(C)CC3)ccc2C)c1 [Example 186, N-[(1R)-1-(3-Bromo-5-methoxy-phenyl)ethyl]-2-methyl-5-(4-methylpiperazin-1-yl)benzamide]	> 5.70	1.0
Cc1ccc(N2CCN(C)CC2)cc1C(=O)N[C@H](C)c1ccc(F)c(Br)c1 [Example 187, N-[(1R)-1-(3-Bromo-4-fluoro-phenyl)ethyl]-2-methyl-5-(4-methylpiperazin-1-yl)benzamide]	> 5.70	44.0
COc1ccc([C@@H](C)NC(=O)c2cc(N3CCN(C)CC3)ccc2C)cc1Cl [Example 188, N-[(1R)-1-(3-Chloro-4-methoxy-phenyl)ethyl]-2-methyl-5-(4-methylpiperazin-1-yl)benzamide]	> 5.70	84.9
Cc1ccc(N2CCN(C)CC2)cc1C(=O)N[C@H](C)c1ccc(OC(F)(F)F)c(Br)c1 [Example 190, N-[(1R)-1-[3-Bromo-4-(trifluoromethoxy)phenyl]ethyl]-2-methyl-5-(4-methylpiperazin-1-yl)benzamide]	> 5.30	0.9
COc1ccc([C@@H](C)NC(=O)c2cc(N3CCN(C)CC3)ccc2C)c2ccccc12 [Example 192, N-[(1R)-1-(4-Methoxy-1-naphthyl)ethyl]-2-methyl-5-(4-methylpiperazin-1-yl)benzamide]	> 5.70	6.3
COc1ccc(Br)cc1[C@@H](C)NC(=O)c1cc(N2CCN(C)CC2)ccc1C [Example 195, N-[(1R)-1-(5-Bromo-2-methoxy-phenyl)ethyl]-2-methyl-5-(4-methylpiperazin-1-yl)benzamide]	> 5.70	41.5
Cc1ccc([C@@H](C)NC(=O)c2cc(N3CCN(C)CC3)ccc2C)cc1Br [Example 196, N-[(1R)-1-(3-Bromo-4-methyl-phenyl)ethyl]-2-methyl-5-(4-methylpiperazin-1-yl)benzamide]	> 5.70	4.7

Structure (SMILES)	pIC50 [1]	% Cell Viability [2] [%]
Cc1ccc(N2CCN(C)CC2)cc1C(=O)N[C@H](C)c1cc(F)cc(Br)c1 [Example 197, N-[(1R)-1-(3-Bromo-5-fluoro-phenyl)ethyl]-2-methyl-5-(4-methylpiperazin-1-yl)benzamide]	> 5.70	44.7
COc1cc(Br)cc([C@@H](C)NC(=O)c2cc(N3C[C@H]4C[C@@H]3CN4C)ccc2C)c1 [Example 198, N-[(1R)-1-(3-Bromo-5-methoxy-phenyl)ethyl]-2-methyl-5-[(1R,4R)-5-methyl-2,5-diazabicyclo[2.2.1]heptan-2-yl]benzamide]	> 5.70	1.6
COc1cc(Br)cc([C@@H](C)NC(=O)c2cc(N3CC4CN(C)CC4C3)ccc2C)c1 (stereo partly drawn) [Example 199, N-[(1R)-1-(3-Bromo-5-methoxy-phenyl)ethyl]-2-methyl-5-(2-methyl-1,3,3a,4,6,6a-hexahydropyrrolo[3,4-c]pyrrol-5-yl)benzamide]	> 5.70	0.7
COc1cc(Br)cc([C@@H](C)NC(=O)c2cc(N3CCN4CCCC4C3)ccc2C)c1 (stereo partly drawn) [Example 200, 5-(3,4,6,7,8,8a-Hexahydro-1H-pyrrolo[1,2a]pyrazin-2-yl)-N-[(1R)-1-(3-bromo-5-methoxy-phenyl)ethyl]-2-methyl-benzamide]	> 5.70	24.3
Cc1ccc(N2CCN(C)CC2)cc1C(=O)N[C@H](C)c1ccc(Cl)c(Br)c1 [Example 201, N-[(1R)-1-(3-Bromo-4-chloro-phenyl)ethyl]-2-methyl-5-(4-methylpiperazin-1-yl)benzamide]	> 5.70	1.0
COc1cc(OC)c([C@@H](C)NC(=O)c2cc(N3CCN(C)CC3)ccc2C)cc1Br [Example 202, N-[(1R)-1-(5-Bromo-2,4-dimethoxy-phenyl)ethyl]-2-methyl-5-(4-methylpiperazin-1-yl)benzamide]	> 5.30	72.5
COc1ccc([C@@H](C)NC(=O)c2cc(N3CCN(C)CC3)ccc2C)cc1-c1ccccc1 [Example 203, N-[(1R)-1-(4-Methoxy-3-phenyl-phenyl)ethyl]-2-methyl-5-(4-methylpiperazin-1-yl)benzamide]	> 5.70	0.9
COc1ccc([C@@H](C)NC(=O)c2cc(N3CCN(C)CC3)ccc2C)cc1-c1cccc(C(C)(C)O)c1 [Example 204, N-[(1R)-1-[3-[3-(1-Hydroxy-1-methyl-ethyl)phenyl]-4-methoxy-phenyl]ethyl]-2-methyl-5-(4-methylpiperazin-1-yl)benzamide]	> 5.70	81.4
COc1ccc([C@@H](C)NC(=O)c2cc(N3CCN(C)CC3)ccc2C)cc1-c1ccsc1 [Example 206, N-[(1R)-1-[4-Methoxy-3-(3-thienyl)phenyl]ethyl]-2-methyl-5-(4-methylpiperazin-1-yl)benzamide]	> 5.70	0.8
COc1ccc([C@@H](C)NC(=O)c2cc(N3CCN(C)CC3)ccc2C)cc1-c1ccn(C)n1 [Example 207, N-[(1R)-1-[4-Methoxy-3-(1-methylpyrazol-3-yl)phenyl]ethyl]-2-methyl-5-(4-methylpiperazin-1-yl)benzamide]	> 5.70	103.7
COc1ccc([C@@H](C)NC(=O)c2cc(N3CCN(C)CC3)ccc2C)cc1-c1cnn(C(F)F)c1 [Example 208, N-[(1R)-1-[3-[1-(Difluoromethyl)pyrazol-4-yl]-4-methoxy-phenyl]ethyl]-2-methyl-5-(4-methylpiperazin-1-yl)benzamide]	> 5.70	87.8
COc1ccc([C@@H](C)NC(=O)c2cc(N3CCN(C)CC3)ccc2C)cc1-c1ccc(=O)n(C)c1 [Example 210, N-[(1R)-1-[4-Methoxy-3-(1-methyl-6-oxo-3-pyridyl)phenyl]ethyl]-2-methyl-5-(4-methylpiperazin-1-yl)benzamide]	> 5.30	64.0
COc1ccc([C@@H](C)NC(=O)c2cc(N3CCN(C)CC3)ccc2C)cc1-c1ccncc1 [Example 211, N-[(1R)-1-[4-Methoxy-3-(4-pyridyl)phenyl]ethyl]-2-methyl-5-(4-methylpiperazin-1-yl)benzamide]	> 5.70	86.0
CCn1cc(-c2cc([C@@H](C)NC(=O)c3cc(N4CCN(C)CC4)ccc3C)ccc2OC)cn1 [Example 213, N-[(1R)-1-[3-(1-Ethylpyrazol-4-yl)-4-methoxy-phenyl]ethyl]-2-methyl-5-(4-methylpiperazin-1-yl)benzamide]	> 5.70	67.2
COc1ccc([C@@H](C)NC(=O)c2cc(N3CCN(C)CC3)ccc2C)cc1-c1cn[nH]c1 [Example 214, N-[(1R)-1-[4-Methoxy-3-(1H-pyrazol-4-yl)phenyl]ethyl]-2-methyl-5-(4-methylpiperazin-1-yl)benzamide]	> 5.70	101.2
